The record followed here is US20240207410A1, “STABILIZED LIQUID COMPOSITIONS COMPRISING A LEVODOPA-TYROSINE CONJUGATE AND USES THEREOF” (NeuroDerm, Ltd., priority 2021, published 2024).

What all share (assay type): physicochemical
Data set [1] can be described thus: Long-term stability of 30% LD-Tyrosine/0.75% carbidopa at 2-8° C. As for the experimental part: The formulation also included 0.5% ascorbic acid (Asc), 0.5% N-acetyl cysteine (NAC) and 0.3% Tween 80. The formulation was stored at 2-8° C. for the time indicated, and % recovery and % LD-Tyr-DKP formation (an impurity) were tested. Percent recovery remained high over time. The DKP impurity accumulated over time.

Data set [2] can be described thus: Evaluation of solution stability, pH 7.4, 60° C. The settings on record: phosphate buffer pH 7.4, about 1 mg/mL, after about 1 day. How it is done:
A phosphate buffer solution at pH 7.4 was added to each of the compounds to dissolve the each of the compounds, and when necessary, a NaOH solution was added to adjust the pH of the mixture to prepare a solution of about 1 mg/mL. After storing this solution at 60° C. for about 1 day, HPLC purity (area percentage, %) was measured. The HPLC purity of the solution immediately after the preparation, or the HPLC purity of the compound, was subtracted from the HPLC purity after storage at 60° C. for about 1 day to obtain a HPLC purity difference.

Data set [3] can be described thus: Evaluation of solution stability, pH 7.4, 25° C. The settings on record: for HPLC purity difference: phosphate buffer pH 7.4, about 1 mg/mL, 25° C. As for the experimental part:
A phosphate buffer solution at pH 7.4 was added to each of the compounds to dissolve the each of the compounds, and when necessary, a NaOH solution was added to adjust the pH of the mixture to prepare a solution of about 1 mg/mL. After storing this solution at 25° C. for about 1 day, HPLC purity (area percentage, %) was measured. The HPLC purity of the solution immediately after the preparation, or the HPLC purity of the compound, was subtracted from the HPLC purity after storage at 25° C. for about 1 day to obtain a HPLC purity difference. […] In Tables 9-1 and 9-2, “LDP-Ala” represents L-Tyrosine,N-L-alanyl-3-hydroxy-(9CI) and has the following structural formula: […]

Data set [4] is described as follows: Evaluation of solubility in water. The settings on record: for pH of filtrate: filtrate of the solubility test; for solubility at 24 h: thermodynamic from solid, water, shaken at 25° C. for 24 hours. As for the experimental part: Water was added to each of the compounds to prepare a suspension, which was shaken at 25° C. for 24 hours, and then, filtration through a filter was performed to obtain a filtrate. A compound concentration in the filtrate was quantified using HPLC to obtain the solubility. Further, the pH of the filtrate was measured.

Structures are written as SMILES. Converted amounts (≈) assume the structure as drawn. Where a SMILES comes first, the peptide text is derived from it. [ ]: non-standard residue; d: D form. pY = N[C@@H](Cc1ccc(OP(=O)(O)O)cc1)C(=O)O; Dopa = N[C@@H](Cc1ccc(O)c(O)c1)C(=O)O

For `C[C@@](Cc1ccc(O)c(O)c1)(NN)C(=O)O` [Carbidopa, carbidopa, reference compound], the “mg/mL (concentration in formulation)” value in data set [1] (1 month) was 7.32 mg/mL; in data set [1] (1 week), 7.36 mg/mL; in data set [1] (2 months), 7.32 mg/mL; in data set [1] (2 weeks), 7.30 mg/mL; in data set [1] (3 months), 7.35 mg/mL; in data set [1] (t = 0), 7.37 mg/mL.

For the molecule `C[C@H](N)C(=O)N[C@@H](Cc1ccc(OP(=O)(O)O)c(O)c1)C(=O)O` [Example 1, (2S)-2-[[(2S)-2-aminopropanoyl]amino]-3-(3-hydroxy-4-phosphonooxyphenyl) propanoic acid], in data set [2], the HPLC purity difference is given as −1.61%. The “stability in aqueous solutions near neutrality” value in data set [3] is listed as “stable”. For the same molecule, the HPLC purity difference in data set [3] (after about 1 day) is recorded as −0.03%. In data set [4], the pH of filtrate stood at 2.6 and the solubility – broadly, the concentration that dissolves in the medium under given conditions – at 24 h amounted to 15.6 mg/mL (≈ 44.8 mM).

For the molecule `N[C@@H](Cc1ccc(O)c(O)c1)C(=O)N[C@@H](Cc1ccc(OP(=O)(O)O)c(O)c1)C(=O)O` [Example 2, (2S)-2-[[(2S)-2-amino-3-(3,4-dihydroxyphenyl)propanoyl]amino]-3-(3-hydroxy-4-phosphonooxyphenyl) propanoic acid], in data set [3] (after about 1 day), the HPLC purity difference is listed as −3.53%. In data set [4], the pH of filtrate is recorded as 2.6 and the solubility at 24 h is over 31.1 mg/mL.

For `NCCCC[C@H](N)C(=O)N[C@@H](Cc1ccc(OP(=O)(O)O)c(O)c1)C(=O)O` [Example 8, (2S)-2-[[(2S)-2,6-diaminohexanoyl]amino]-3-(3-hydroxy-4-phosphonooxyphenyl) propanoic acid], in data set [3], the “stability in aqueous solutions near neutrality” value is “stable”. For the same molecule, in data set [3] (after 1.9 days), the HPLC purity difference is reported as 0.25 (after 1.9 days) %.

Consider `N[C@@H](Cc1ccc(OP(=O)(O)O)cc1)C(=O)N[C@@H](Cc1ccc(O)c(O)c1)C(=O)O` [Example 10, (2S)-2-[[(2S)-2-amino-3-(4-phosphonooxyphenyl)propanoyl]amino]-3-(3,4-dihydroxyphenyl) propanoic acid] (H-[pY]-[Dopa]-OH), for which the HPLC purity difference in data set [3] (after about 1 day) is −0.67%.

In the case of `C[C@H](N)C(=O)N[C@@H](Cc1ccc(O)c(O)c1)C(=O)O` [LDP-Ala, L-Tyrosine,N-L-alanyl-3-hydroxy-(9CI), reference compound] (H-Ala-[Dopa]-OH), the HPLC purity difference in data set [2] was −25.00%; in data set [3] (after about 1 day), −3.80%.
